Source: patent US20060099712A1, “Correlation of anti-cancer activity of dyes with redox potentials” (Eastman Kodak Company, priority 2004, published 2006)

Test system: CX-1 Human Colon Carcinoma
Test: Clonogenic dye screening assay, CX-1 cells (IC50)
Format: cell-based
Parameters: CX: unit not given here
Conditions: for CV/C: selectivity ratio, value of 1 where dye inactive; for CV/CX (selectivity, kill ratio): ratio of IC50 in normal CV-1 line to IC50 in carcinoma CX-1 line; for CX: CX-1 cells; for CX (IC50 in the CX-1 cell line): 3 hrs treatment, colonies after 7-10 days, unit from method b117-118
Text: CX-1 is a cancerous human colon adenocarcinoma cell line. CV-1 is a non-cancerous control, which is a kidney epithelial cell line from an African green monkey. IC50 is the dye concentration at which 50% of the cells are killed. Selectivity or kill ratio is defined as the ratio of […] at IC50 for both CX-1 and CV-1. A ratio with a high number indicates a high selectivity.
The dyes were screened in two cell lines. CX-1 is a human colon adenocarcinoma cell line. CV-1 is a kidney epithelial cell line from an African green monkey. CV-1 was used as a reference because no normal human epithelial cell line is available for clonogenic assay.
In the initial screen, dyes were examined at six different concentrations to generate a dose response curve. An IC50 value, the concentration at which 50% of the cells are killed, was then calculated. Initially, a dye concentration of 1.0 μg/mL was the highest examined for the CX-1 cell line and 0.005 μg/mL was the lower limit. The corresponding limits on the CV-1 cell line were […].
The screening procedure used a response curve that was determined from eight dye concentrations. The upper and lower limits of CX-1 were 0.32 and 0.0015 μg/mL, respectively, and the corresponding revised limits on CV-1 were 3.2 and 0.025 μg/mL. The screening results were reported by assigning an IC50 value to each dye for the CV-1 and CX-1 cell lines. These values will be referred to herein simply as CV and CX. The most desirable result would be to have a dye that was highly toxic to carcinoma cells but nontoxic to ‘normal’ cells. One measure of this type of selectivity is the ratio of the IC50's in the normal cell line to that in the carcinoma line, CV/CX.
Compounds are screened via an in vitro assay. CV-1 and CX-1 cells are seeded into separate assay plates. The plates are treated with varying concentrations of test compounds, rinsed, and colonies allowed to grow. IC50's are determined and drugs evaluated based on their selectivity and toxicity. Assay Steps: • I. Seeding Cells • II. Weighing • III. Preparation of Solution • IV. Treatment • V. Rinsing and Feeding • VI. Fixing • VII. IC50 Determination I. Seeding Cells
The cells should be seeded 16-30 hours before treatment. The media for CV-1 cells is DME+5% calf serum +5% Nuserum. The media for CX-1 cells is RPMI/DME (50/50)+5% calf serum +5% Nuserum.
(c) number of cells based on 2000 CX-1 cells/well and 1000 CV-1 cells/well. NOTE: Always make enough cell suspension for 1 extra plate to allow for volume loss during transfers.
• (a) For CV-1: 256 ug/ml-256 ul of 1 mg/ml stock +744 ul DMSO • (b) For CX-1: 25.6 ug/ml-100 ul of 256 ug/ml+900 ul DMSO IV. Treatment • 1. Each plate is treated with 4 test compounds, one positive control and one negative control. • 2. Serial dilutions of the compounds are made in the following way:
2 multi-well pipetters are used. One is set for 10 ul and one for 200 ul. Each is equipped with 6 tips spaced such that they fit into the 6 rows of a plate. 390 ul of media is added to the first column of each plate. 10 ul each of 4 compound solutions, a positive and a negative control are taken up and put into the first column of wells. The 200 ul pipetter is then placed in the same wells, pipetted up and down 3 times and two 200 ul aliquots are moved to the next column of wells. This column is pipetted up and down 3 times and 400 ul moved to column 3, etc. The final 400 ul excess from column 8 is discarded.
• 3. Label the plates along the front, each row −1 compound. • 4. Incubate the plates at 37° C. for 3 hrs. V. Rinsing • 1. Prepare several bottles of CX-1 and CV-1 media. • 2. Check for precipitate in first column of each plate and note. • 3. Starting with the plates treated first, rinse several plates at a time by aspirating the treatments and refilling each well with 0.5-1.0 ml of the rinse media. Aspirate and refill 2 more times for a total of 3 rinses. • 4.

[1] = Table XX, thiacarbocyanine nitrogen substituents
[2] = Table XX, ratio given a value of 1 where dye inactive
[3] = Table XV, selectivity ratio of IC50 values
[4] = Table XXI, oxathiacarbocyanine nitrogen substituents
[5] = Table XVI, selectivity ratio of IC50 values

SMILES	CV/CX (selectivity, kill ratio)	CX (IC50 in the CX-1 cell line)	also measured
CCN1/C(=C/C=C/c2sc3ccccc3[n+]2CC(N)=O)Oc2ccccc21 [R1=CC(═O)N, R2=Et]	–	–	CV/C (Table XXI): >10.0
CCN1/C(=C/C=C/c2sc3cc(Cl)ccc3[n+]2CC)Sc2cc(Cl)ccc21.[I-] [Dye D-164]	112.5	–	–
CSCCN1C(=CC=Cc2sc3ccccc3[n+]2CCSC)Sc2ccccc21 [R1=CCSMe, R2=CCSMe]	–	–	CX [1]: 0.015; CV/CX [2]: 12.0
CC[n+]1c(/C=C/C=C2\SC(C)=C(C)N2C)oc2ccccc21.[I-] [Dye D-119]	60	0.05 µg/mL	–
CCN1C(=CC=Cc2oc3ccccc3[n+]2CC)Oc2ccccc21 [Dye B-400]	–	–	CX (Table XV, symmetrical dyes): 0.10; CV/CX [3]: 30.0
CCN1/C(=C/C=C/c2oc3cc4c(cc3[n+]2CC)OCO4)Oc2cc3c(cc21)OCO3 [drawing 45|5,6-OCO—|5,6-OCO—]	5.0	0.08 µg/mL	–
CCN1/C(=C/C=C/c2sc3cc(O)c(O)cc3[n+]2CC)Sc2ccccc21 [drawing 41|Et|5,5-OH|H]	10.0	–	–
CCN1C(=CC(=Cc2sc3ccccc3[n+]2CC)SC)Sc2ccccc21 [drawing 38|E|H|SMe|H]	1.25	0.24 µg/mL	–
CN1C(=CC=Cc2[se]c3ccccc3[n+]2C)[Se]c2ccccc21 [Dye B-405]	–	–	CX (Table XV, symmetrical dyes): 0.008; CV/CX [3]: 7.5
CCN1/C(=C/C=C/c2sc3ccccc3[n+]2CCC=NNS(=O)(=O)c2ccc(C)cc2)Oc2ccccc21 [R1=CCC═NNS02Ph-4C, R2=Et]	–	–	CX [4]: 0.3; CV/C (Table XXI): 33.3
CC[n+]1c(/C=C/C=C2\Oc3ccccc3N2CC(F)(F)F)sc2ccccc21 [R1=Et, R2=CC(F)3]	–	–	CX [4]: 0.1; CV/C (Table XXI): 50.0
CCN1/C(=C/C(=C/c2sc3ccccc3[n+]2CC)Sc2ccc(C)cc2)Sc2ccccc21 [drawing 38|E|H|SPhMe|H]	3.57	0.07 µg/mL	–
CCN1C(=CC=Cc2sc3ccccc3[n+]2CC)Sc2cc3ccccc3cc21 [naphtho/2,3/thiazole]	–	–	CX (Table XVI, unsymmetrical dyes): 0.007; CV/CX [5]: 57.0
CCN1C(=CC=Cc2sc3ccc(OC)cc3[n+]2CC)Sc2ccccc21 [drawing 41|Et|5-MeO|H]	40.0	–	–
CN1/C(=C/C=C/c2sc3ccc4ccccc4c3[n+]2C)Sc2ccc3ccccc3c21 [drawing 43|M|H|H]	10.0	–	–
CCN1C(=CC(=Cc2sc3ccccc3[n+]2CC)CSC(C)=O)Oc2ccccc21 [drawing 39|E|H|CSC(═O)C]	33.3	0.03 µg/mL	–
CCN1/C(=C/C=C/c2sc3ccccc3[n+]2CC)C(C)(C)c2ccccc21 [3H-indole (3,3-Me)]	–	–	CX (Table XVI, unsymmetrical dyes): 0.16; CV/CX [5]: 0.3
CC[n+]1c(/C=C/C=C2\Oc3ccccc3N2CC(=O)c2ccccc2)sc2ccccc21 [drawing 37|Et|C(C═O)Ph]	3.7	0.8 µg/mL	–
CCN1/C(=C/C=C(\OC(C)=O)c2sc3ccccc3[n+]2CC)Oc2ccccc21 [drawing 39|E|OAc|H]	10.0	–	–
CSC(=Cc1sc2ccccc2[n+]1C)C=C1Sc2ccccc2N1C [drawing 38|M|H|SMe|H]	26.6	0.015 µg/mL	–
CCN1/C(=C/C=C/c2sc3ccc(-c4ccccc4)cc3[n+]2CC)Sc2ccc(-c3ccccc3)cc21 [drawing 41|Et|5-Ph|5-Ph,]	1.25	0.08 µg/mL	–

SMILES	CV/CX (selectivity, kill ratio)	CX (IC50 in the CX-1 cell line)	also measured
CCN1/C(=C/C=C/c2sc3c([n+]2C)CCCC3)Sc2ccccc21.[I-] [benzothiazole(4,5,6,7-H)]	–	–	CX (Table XVI, unsymmetrical dyes): <0.005; CV/CX [5]: >60.0
CCN1/C(=C/C=C/c2sc3ccccc3[n+]2CC)Sc2ccccc21.[I-] [Dye D-165]	100	–	CV/CX [5]: 100.0
COc1cccc2c1CCC1=C2N(C)/C(=C/C=C/c2sc3c([n+]2C)-c2cccc(OC)c2CC3)S1 [drawing 43|M|4,5-H, 6-MeO|4,5-H, 6-MeO]	0.75	0.02 µg/mL	–
CN1/C(=C/C=C/c2sc3ccccc3[n+]2C)Sc2ccc3ccccc3c21 [naphtho/1,2/thiazole (R=M)]	–	–	CX (Table XVI, unsymmetrical dyes): <0.005; CV/CX [5]: 10.0
CCN1/C(=C\C=C\c2sc3ccc4ccccc4c3[n+]2CC)Oc2ccc3ccccc3c21 [drawing 40|E|H]	6.7	0.3 µg/mL	–
CCN1/C(=C/C=C/c2sc3ccccc3[n+]2CC(=O)c2ccc(O)c(O)c2)Oc2ccccc21 [R1=CC(═0)Ph-3,4-OH, R2=Et]	–	–	CX [4]: >1.0; CV/C (Table XXI): 1.0
CCN1/C(=C/C=C/c2sc3cc(O)c(O)cc3[n+]2CC)Oc2ccccc21 [drawing 44|E|5,6-OH|H]	8.0	–	–
CCN1C(=CC=Cc2sc3cc(OC)ccc3[n+]2CC)Sc2cc(OC)ccc21 [drawing 41|Et|6-MeO|6-MeO]	9.0	0.01 µg/mL	–
CCSC(CCN1/C(=C/C=C/c2sc3ccccc3[n+]2CCC(SCC)SCC)Sc2ccccc21)SCC [R1=CCC(SEt)2, R2=CCC(SEt)2]	–	–	CX [1]: >0.32; CV/CX [2]: 4.1
CC[n+]1c(/C=C/C=C2C=CC=CN2C)sc2ccccc21 [Dye 2-pyridine]	–	–	CX (Table XVI, unsymmetrical dyes): 0.08; CV/CX [5]: 50.0
CC[n+]1c(/C=C/C=C2C=CN(C)c3ccccc32)sc2ccccc21 [Dye 4-quinoline]	–	–	CX (Table XVI, unsymmetrical dyes): 0.01; CV/CX [5]: 40.0
CCN1C(=CC=Cc2sc3ccc(Br)cc3[n+]2CC)Sc2ccc(Br)cc21 [drawing 41|Et|5-Br|5-Br]	35.0	0.04 µg/mL	–
CN1/C(=C/C(=C/c2sc3ccc4ccccc4c3[n+]2C)c2ccccc2)Oc2ccc3ccccc3c21 [drawing 40|M|Ph]	10.0	0.03 µg/mL	–
OCCN1/C(=C/C=C/c2sc3ccccc3[n+]2CCO)Sc2ccccc21 [R1=CCOH, R2=CCOH]	–	–	CX [1]: >0.32; CV/CX [2]: 1.0
CCN1C(=CC=Cc2sc3cc(O)c(O)cc3[n+]2CC)Oc2ccccc21 [drawing 46|S|O|5,6-OH|H]	8.0	–	–
CCN1/C(=C/C=C/c2sc3ccccc3[n+]2CCS(=O)(=O)CC)Oc2ccccc21 [R1=CCS02CC, R2=Et]	–	–	CX [4]: 0.3; CV/C (Table XXI): >33.3
CCN1/C(=C/C=C/c2sc3ccccc3[n+]2CC(=O)c2ccc(O)cc2O)Oc2ccccc21 [R1=CC(═0)Ph-2,4-OH, R2=Et]	–	–	CX [4]: 0.3; CV/C (Table XXI): >33.3
CCN1C(=CC=c2sc(=Cc3sc4ccccc4[n+]3CC)n(CC)c2=O)Sc2ccccc21 [drawing 51|Et]	22.8	0.07 µg/mL	–
CCN1/C(=C/C=C/c2sc3ccccc3[n+]2CC(=O)c2ccccc2)Oc2ccccc21 [R1=CC(═0)Ph, R2=Et]	–	–	CX [4]: 0.3; CV/C (Table XXI): 10.0
CC[n+]1c(/C=C(/C=C2\Sc3ccccc3N2C)Sc2ccccc2)sc2ccccc21 [drawing 38|E/M|H|SPh|H]	10.0	0.07 µg/mL	–
